Data reported in US10047084B2, “Imidazolone derivatives, pharmaceutical compositions and uses thereof” (BEIJING FORELANDPHARMA CO. LTD., priority 2013, dated 2018).

Key:
mTOR kinase = mTOR kinase (Homo sapiens (Human), UniProt P42345); assay: mTOR kinase activity assay (TR-FRET, GFP-4EBP1 substrate); assay type: biochemical; details: read-out: Enzyme (mTOR) IC50
Procedure: 1. mTOR Kinase Activity Assay: The inhibition of the mTOR protein kinase activity by the compounds was determined by the enzymatic activity assay in vitro. The detection kit supplied by Invitrogen was used to detect the inhibition of the activity of the mTOR […]. The principle of the assay was as follows: mTOR kinase, fluorescein-labeled substrate and ATP were mixed, and after the reaction, EDTA and terbium-labeled first antibody were added. During the chemical reaction process of the mTOR kinase, the antibody recognized the phosphorylated and fluorescein-labeled substrate, and then the “time-resolved fluorescence resonance energy transfer” (TR-FRET) effect was enhanced. TR-FRET effect was calculated as the ratio of signals from the acceptor fluorescein to signals from the donor terbium. The amount of the antibody bound to the tracer was directly proportional to the amount of the phosphorylated substrate after the reaction. In this way, the kinase activity can be detected. In this assay, the substrate of the mTOR kinase was green fluorescent protein-coupled 4E binding protein 1 (GFP-4EBP1).
1.1 Materials and Instruments:
4-Hydroxyethylpiperazine ethanesulfonic acid (HEPES, Sigma, Cat# SH3375), ethylene glycol-bis-(2-aminoethylether)-tetraacetic acid (EGTA, Sigma, Cat# E3889), manganese chloride (MnCl2, Sigma, Cat# M1787), Tween-20 (Tween-20, Amresco), 1,4-dithiothreitol (DTT, Merck, CB233155),

PC-3 = assay: CTG cell survival assay, PC-3; assay type: cell-based; details: Homo sapiens, PC-3 cells
Excerpt: (§1) 2. CTG Cell Survival Assay:
(§2) ATP is necessarily produced during the metabolic activities of viable cells, and there is a linear relationship between the content of ATP and the number of viable cells. Cell viability assay by CTG chemiluminescence is a general method for detecting the number of viable cells in the culture cells based on this principle. The addition of the CellTiter-Glo (CTG) reagent may induce cell lysis and produce chemiluminescent signals directly proportional to the amount of ATP in the well-plate, and thereby the cell proliferation activity in the well-plate can be measured by the reading values from the chemiluminescence.
(§3) 2.1 Experimental Materials and Instruments:
(§4) 2.4 Experimental Procedure: • 1.4.1 Cell Thawing: Cryogenic vials were removed from the liquid nitrogen container, directly immersed in a water bath at 37° C., and shaked from time to time to thaw. The cryogenic vials were removed from the water bath at 37° C., and transferred to the biosafe cabinet. Their lids were opened, and the cell suspensions were aspirated with pipettes, added to centrifuge tubes, and then added with more than 10 volumes of culture solution, mixed well; centrifuged for 5 min at 1000 rpm; the supernatant was discarded, and medium containing cell growth was added to resuspend cells. All cell suspensions were seeded to the T25 culture flasks and static cultured in an incubator at 37° C.; the culture solution were changed once on the next day, and continued to be cultured. • 2.4.2 Cell Passaging: After cells were grown to logarithmic phase and were 80%-90% confluent, cells were removed and placed in the biosafe cabinet, the old culture solution was discarded, and the cells were wetted and washed with PBS once or twice. An appropriate amount of 0.25% Trypsin-EDTA solution was added to the culture flasks. The flasks were placed in the carbon dioxide incubator at 37° C. for 2-5 min. An appropriate amount of cell growth medium containing 10% PBS was added to terminate the digestion, lightly swished, and transferred to the centrifuge tubes and centrifuged for 5 min at 1000 rpm. The cells were prepare (into cell suspensions for passaging and experimental use. • 2.4.3 Cell Plating • 2.4.3.1 A cell suspension was prepared: After cells were grown to logarithmic phase and were 80%-90% confluent, the cells were removed to the biosafe cabinet, and the old culture solution was discarded, then the cells were wetted and washed with PBS once or twice. An appropriate amount of 0.25% Trypsin-EDTA solution was added to the culture flask. The flask was placed in a carbon dioxide incubator at 37° C. for 2-5 min. An appropriate amount of the cell growth medium containing 10% PBS was added to terminate digestion, and was lightly swished. The solution was transferred to a centrifuge tube, centrifuged for 5 min at 1000 rpm, and counted. […] Secondly, 20 uM of the compound to be tested was diluted with the cell growth medium containing 0.2% DMSO in 3-fold dilution to obtain 9 concentrations, and there were 10 concentration gradients in total. • 2.4.4.3 Addition of the compounds to be tested: the prepared gradient dilution solutions of compounds to be tested were taken and added to the cell culture plate at 100 ul/well; at this point, the maximum concentration of compounds to be tested was 10 uM, and the concentration of DMSO was 0.1%.

MV-4-11 = assay: CTG cell survival assay, MV-4-11; assay type: cell-based; details: Homo sapiens, MV4-11, MV-4-11 cells
Excerpt: as §1, §2, §3
2.1.1 Experimental Materials: compounds to be tested, cell basal culture medium, RPMI Medium 1640 (Invitrogen, Cat#11875-093), fetal calf serum (FBS): Hyclone FETAL BOVINE SERUM DEFINED (Invitrogen, Cat#SH30070.03), antibiotics: Penicilin Streptomycin (Invitrogen, Cat#15140-122), phosphate buffer (Corning Cellgro, Cat#R21-040-CV), cell digestive solution: 0.25% Trypsin-EDTA (Invitrogen, Cat#25200-056), CTG detection kit: Promega, Cat#G7571, flat-bottom 96-well black bottom plate: NUNC, Cat#165305, T25 culture flask: NUNC, Cat#156367, T75 culture flask: NUNC, Cat#156439
2.2 Experimental Instruments: Carbon Dioxide Incubator, SANYO-MCO-20AIC, Biosafe Cabinet: BSC-1360-LIIA2, Table-Top High-Speed Refrigerated Centrifuge: SorvallST 16R, Microplate Rapid Oscillator: QB-9001, M3 Reader: SpectraMax M3, Microscope: OLYMPUS-CKX41/CKX31.
2.3 Preparation of Solutions and Reagents: Formulation of cell growth medium: RPMI Medium 1640+10% FBS+antibiotics, others: trypsin digestive solution, phosphate buffer (PBS), DMSO, CTG detection kit.
2.4 Experimental Procedure: • 1.4.1 Cell Thawing: Cryogenic vials were removed from the liquid nitrogen container, directly immersed in a water bath at 37° C., and shaked from time to time to thaw. The cryogenic vials were removed from the water bath at 37° C., and transferred to the biosafe cabinet. Their lids were opened, and the cell suspensions were aspirated with pipettes, added to centrifuge tubes, and then added with more than 10 volumes of culture solution, mixed well; centrifuged for 5 min at 1000 rpm; the supernatant was discarded, and medium containing cell growth was added to resuspend cells. All cell suspensions were seeded to the T25 culture flasks and static cultured in an incubator at 37° C.; the culture solution were changed once on the next day, and continued to be cultured. • 2.4.2 Cell Passaging: After cells were grown to logarithmic phase and were 80%-90% confluent, cells were removed and placed in the biosafe cabinet, the old culture solution was discarded, and the cells were wetted and washed with PBS once or twice. An appropriate amount of 0.25% Trypsin-EDTA solution was added to the culture flasks. The flasks were placed in the carbon dioxide incubator at 37° C. for 2-5 min. An appropriate amount of cell growth medium containing 10% PBS was added to terminate the digestion, lightly swished, and transferred to the centrifuge tubes and centrifuged for 5 min at 1000 rpm. The cells were prepare (into cell suspensions for passaging and experimental use. • 2.4.3 Cell Plating • 2.4.3.1 A cell suspension was prepared: After cells were grown to logarithmic phase and were 80%-90% confluent, the cells were removed to the biosafe cabinet, and the old culture solution was discarded, then the cells were wetted and washed with PBS once or twice. An appropriate amount of 0.25% Trypsin-EDTA solution was added to the culture flask. The flask was placed in a carbon dioxide incubator at 37° C. for 2-5 min. An appropriate amount of the cell growth medium containing 10% PBS was added to terminate digestion, and was lightly swished. The solution was transferred to a centrifuge tube, centrifuged for 5 min at 1000 rpm, and counted. […]

SK-BR3/BT474 = assay: CTG cell survival assay, SK-BR3/BT474; assay type: cell-based; details: SK-BR3/BT474 cells
Excerpt: as §1, §2, §3, §4

Sequence of mTOR kinase (P42345 1360-2549): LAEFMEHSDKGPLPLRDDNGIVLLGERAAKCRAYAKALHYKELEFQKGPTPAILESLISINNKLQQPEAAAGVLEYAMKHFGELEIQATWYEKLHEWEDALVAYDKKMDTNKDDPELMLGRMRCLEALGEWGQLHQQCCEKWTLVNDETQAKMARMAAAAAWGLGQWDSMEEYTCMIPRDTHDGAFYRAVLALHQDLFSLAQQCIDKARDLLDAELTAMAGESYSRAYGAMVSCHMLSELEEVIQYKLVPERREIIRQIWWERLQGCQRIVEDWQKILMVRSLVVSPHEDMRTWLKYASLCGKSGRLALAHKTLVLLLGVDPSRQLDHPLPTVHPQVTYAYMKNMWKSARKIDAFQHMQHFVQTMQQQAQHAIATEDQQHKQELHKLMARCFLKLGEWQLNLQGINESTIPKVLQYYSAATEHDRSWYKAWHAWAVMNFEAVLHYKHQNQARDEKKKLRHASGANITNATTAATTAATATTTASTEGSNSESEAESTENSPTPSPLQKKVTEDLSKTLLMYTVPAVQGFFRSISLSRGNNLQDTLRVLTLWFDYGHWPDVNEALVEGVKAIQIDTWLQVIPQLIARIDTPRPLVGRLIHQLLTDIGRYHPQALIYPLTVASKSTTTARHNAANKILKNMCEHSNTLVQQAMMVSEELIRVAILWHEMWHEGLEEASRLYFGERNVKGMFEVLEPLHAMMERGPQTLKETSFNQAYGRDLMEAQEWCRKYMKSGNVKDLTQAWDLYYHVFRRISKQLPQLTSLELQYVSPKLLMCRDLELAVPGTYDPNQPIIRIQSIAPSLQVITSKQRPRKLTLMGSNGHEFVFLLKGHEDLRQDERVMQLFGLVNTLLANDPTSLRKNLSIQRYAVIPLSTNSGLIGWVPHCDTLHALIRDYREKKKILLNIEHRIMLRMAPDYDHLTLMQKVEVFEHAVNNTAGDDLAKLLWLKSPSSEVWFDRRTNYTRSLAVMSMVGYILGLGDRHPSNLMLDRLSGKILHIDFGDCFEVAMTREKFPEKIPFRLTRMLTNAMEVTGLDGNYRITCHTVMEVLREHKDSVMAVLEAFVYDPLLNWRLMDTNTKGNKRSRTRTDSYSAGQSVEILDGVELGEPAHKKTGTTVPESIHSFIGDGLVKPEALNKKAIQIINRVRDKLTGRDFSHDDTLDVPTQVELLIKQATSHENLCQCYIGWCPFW

Structure (SMILES)	IC50 (mTOR kinase) [nM]	EC50 (PC-3) [nM]	EC50 (MV-4-11) [nM]	EC50 (SK-BR3/BT474) [nM]
Cn1cc(-c2ccc(-c3ccc4ncc5c(c4c3)n(C3CCCN(C(=O)c4nc[nH]n4)C3)c(=O)n5C)cn2)cn1 (stereo not drawn) [Example 2, 1-(1-(1H-1,2,4-triazole-3-carbonyl)piperidin-3-yl)-3-methyl-8-(6-(1-methyl-1H-pyrazol-4-yl)pyridin-3-yl)-1H-imidazo[4,5-c]quinolin-2(3H)-one]	100 to 1000	–	–	–
Cn1cc(-c2ccc(-c3ccc4ncc5c(c4c3)n(C3CCN(C(=O)C(F)(F)F)C3)c(=O)n5C)cn2)cn1 (stereo not drawn) [Example 16, 3-methyl-8-(6-(1-methyl-1H-pyrazol-4-yl)pyridin-3-yl)-1-(1-(2,2,2-trifluoroacetyl)pyrrolidin-3-yl)-1H-imidazo[4,5-c]quinolin-2(3H)-one]	100 to 1000	< 1000	–	–
Cn1ccc(-c2ccc(-c3ccc4ncc5c(c4c3)n([C@H]3CCN(S(C)(=O)=O)C3)c(=O)n5C)cn2)n1 [Example 47, (S)-3-methyl-8-(6-(1-methyl-1H-pyrazol-3-yl)pyridin-3-yl)-1-(1-(methanesulfonyl)pyrrolidin-3-yl)-1H-imidazo[4,5-c]quinolin-2(3H)-one]	–	30	< 100	40
Cn1cc(-c2ccc(-c3ccc4ncc5c(c4n3)n([C@@H]3CCCN(S(C)(=O)=O)C3)c(=O)n5C)cn2)cn1 [Example 49, (R)-3-methyl-8-(6-(1-methyl-1H-pyrazol-4-yl)pyridin-3-yl)-1-(1-(methanesulfonyl)piperidin-3-yl)-1H-imidazo[4,5-c][1,5]naphthyridin-2(3H)-one]	–	10	< 20	20
Cn1cc(-c2ccc(-c3ccc4ncc5c(c4n3)n([C@H]3CCN(S(C)(=O)=O)C3)c(=O)n5C)cn2)nn1 [Example 50, (S)-3-methyl-8-(6-(1-methyl-1H-1,2,3-triazol-4-yl)pyridin-3-yl)-1-(1-(methanesulfonyl)pyrrolidin-3-yl)-1H-imidazo[4,5-c][1,5]naphthyridin-2(3H)-one]	–	20	< 30	30
Cn1cc(-c2ccc(-c3ccc4ncc5c(c4c3)n([C@H]3CC[C@@H](O)CC3)c(=O)n5C)cn2)nn1 [Example 51, 1-((1s,4s)-4-hydroxycyclohexyl)-3-methyl-8-(6-(1-methyl-1H-1,2,3-triazol-4-yl)pyridin-3-yl)-1H-imidazo[4,5-c]quinolin-2(3H)-one]	–	< 10	< 20	10
CCNC(=O)N1CCC[C@@H](n2c(=O)n(C)c3cnc4ccc(-c5ccc(-c6cnn(C)c6)nc5)cc4c32)C1 [Example 55, (R)—N-ethyl-3-(3-methyl-8-(6-(1-methyl-1H-pyrazol-4-yl)pyridin-3-yl)-2-oxo-2,3-dihydro-1H-imidazo[4,5-c]quinolin-1-yl)piperidine-1-formamide]	–	300	800	300
Cn1cc(-c2ccc(-c3ccc4ncc5c(c4c3)n([C@@H]3CCCN(S(=O)(=O)C(F)(F)F)C3)c(=O)n5C)cn2)cn1 [Example 56, (R)-3-methyl-8-(6-(1-methyl-1H-pyrazol-4-yl)pyridin-3-yl)-1-(1-((trifluoromethyl)sulfonyl)piperidin-3-yl)-1H-imidazo[4,5-c]quinolin-2(3H)-one]	–	< 30	60	70
Cn1cc(-c2ccc(-c3ccc4ncc5c(c4c3)n(C3CCN(S(C)(=O)=O)CC3)c(=O)n5C)cn2)cn1 [Example 59, 3-methyl-8-(6-(1-methyl-1H-pyrazol-4-yl)pyridin-3-yl)-1-(1-(methanesulfonyl)piperidin-4-yl)-1H-imidazo[4,5-c]quinolin-2(3H)-one]	–	30	100	< 100
Cn1cc(-c2ccc(-c3ccc4ncc5c(c4c3)n(C3CCN(S(C)(=O)=O)CC3)c(=O)n5C)cn2)nn1 [Example 60, 3-methyl-8-(6-(1-methyl-1H-1,2,3-triazol-4-yl)pyridin-3-yl)-1-(1-(methanesulfonyl)piperidin-4-yl)-1H-imidazo[4,5-c]quinolin-2(3H)-one]	–	< 30	< 100	40
Cn1cc(-c2ccc(-c3ccc4ncc5c(c4c3)n(C3CC4CCC(C3)N4S(C)(=O)=O)c(=O)n5C)cn2)nn1 (stereo not drawn) [Example 61, 3-methyl-8-(6-(1-methyl-1H-1,2,3-triazol-4-yl)pyridin-3-yl)-1-(8-(methanesulfonyl)-8-azabicyclo[3.2.1]octan-3-yl)-1H-imidazo[4,5-c]quinolin-2(3H)-one]	–	< 10	< 20	< 10
Cn1cc(-c2ccc(-c3ccc4ncc5c(c4c3)n(C3CC4CCC(C3)N4S(C)(=O)=O)c(=O)n5C)cn2)cn1 (stereo not drawn) [Example 62, 3-methyl-8-(6-(1-methyl-1H-pyrazol-4-yl)pyridin-3-yl)-1-(8-(methanesulfonyl)-8-azabicyclo[3.2.1]octan-3-yl)-1H-imidazo[4,5-c]quinolin-2(3H)-one]	–	< 10	< 20	< 20
